Measurements reported in paper PMC9182199, “Borylated 2,3,4,5-Tetrachlorophthalimide and Their 2,3,4,5-Tetrachlorobenzamide Analogues: Synthesis, Their Glycosidase Inhibition and Anticancer Properties in View to Boron Neutron Capture Therapy” (Molecules, 2022).

Legend:
yeast α-glucosidase = target: T1, yeast α-glucosidase (Saccharomyces cerevisiae, UniProt P53341); experiment: Glycosidase inhibition, laboratory 2: yeast α-glucosidase; format: biochemical; conditions: for inhibition at 400 µM: read-out: % inhibition at ~400 μM, water; for % inhibition at ~400 μM: water
T1 construct: purchased Sigma
Method: (§1) All enzymes and para-nitrophenyl substrates were purchased from Sigma. Enzymes were assayed at 27 °C in 0.1 M citric acid/0.2 M disodium hydrogen phosphate buffers at the optimum pH for the enzyme. The incubation mixture consisted of 10 μL enzyme solution, 10 μL of 1 mg/mL aqueous solution of extract and 50 μL of the appropriate 5 mM para-nitrophenyl substrate made up in buffer at the optimum pH for the enzyme. The reactions were stopped by addition of 70 μL 0.4 M glycine (pH 10.4) during the exponential phase of the reaction, which had been determined at the beginning using uninhibited assays in which water replaced inhibitor. Final absorbances were read at 405 nm using a Versamax microplate reader (Molecular Devices). Assays were carried out in triplicate, and the values given are means of the three replicates per assay. All reactions run in water.

[1] = Appearance of the 1 mg/mL aqueous solution tested; format: physicochemical; conditions: 1 mg/mL in water
MIA-Pa-Ca2 [2] = experiment: MTT cell growth inhibition: MIA-Pa-Ca2; format: cell-based; conditions: 72 h; for inhibition at 25 µM: Homo sapiens, MIA PaCa-2, MIA-Pa-Ca2 pancreatic carcinoma, read-out: Percentage (%) Cell Growth Inhibition in response to 25 µM of Drug; for Percentage (%) Cell Growth Inhibition in response to 25 µM of Drug: MIA-Pa-Ca2 pancreatic carcinoma
Method: All test agents were prepared as stock solutions (20 mM) in dimethyl sulfoxide (DMSO) and stored at −20 °C. Cell lines used in the study included HT29 (colorectal carcinoma); U87, SJ-G2, (glioblastoma); MCF-7, (breast carcinoma); A2780 (ovarian carcinoma); H460 (lung carcinoma); A431 (skin carcinoma); Du145 (prostate carcinoma); BE2-C (neuroblastoma); MiaPaCa-2 (pancreatic carcinoma); and SMA560 (spontaneous murine astrocytoma), together with the one non-tumour-derived normal breast cell line (MCF10A). All cell lines were incubated in a humidified atmosphere 5% CO2 at 37 °C. The cancer cell lines were maintained in Dulbecco’s modified Eagle’s medium (DMEM; Sigma, Australia) supplemented with foetal bovine serum (10%), sodium pyruvate (10 mM), penicillin (100 IUmL^−1), streptomycin (100 µg mL^−1) and L-glutamine (2 mM).
Growth inhibition was determined by plating cells in duplicate in medium (100 µL) at a density of 2500–4000 cells per well in 96-well plates. On day 0 (24 h after plating), when the cells were in logarithmic growth, medium (100 µL) with or without the test agent was added to each well. After 72 h drug exposure, growth inhibitory effects were evaluated using the MTT (3-(4,5-dimethyltiazol-2-yl)-2,5-diphenyltetrazolium bromide) assay and absorbance read at 540 nm. The percentage growth inhibition was calculated at a fixed concentration of 25 µM, based on the difference between the optical density values on day 0 and those at the end of drug exposure. Each data point is the mean ± the standard error of the mean (SEM) calculated from three replicates which were performed on separate occasions and separate cell line passages.

almond β-glucosidase = experiment: Glycosidase inhibition, laboratory 2: almond β-glucosidase; format: biochemical; conditions: water
Method: as §1

snail β-mannosidase = experiment: Glycosidase inhibition, laboratory 1: snail β-mannosidase; format: biochemical; conditions: methanol
From the text: The enzymes α-glucosidase (from yeast), β-glucosidases (from almond and bovine liver), α-galactosidase (from coffee beans), β-galactosidase (from bovine liver), α-mannosidase (from Jack bean), β-mannosidase (from snail), α-L-rhamnosidase (from Penicillium decumbens), α-L-fucosidase (from bovine kidney), trehalase (from porcine kidney), β-glucuronidases (from E. coli and bovine liver), amyloglucosidase (from A. niger), para-nitrophenyl glycosides, and various disaccharides were purchased from Sigma-Aldrich Co (St Louis, MO, USA).
Brush border membranes were prepared from the rat small intestine according to the method of Kessler et al. and were assayed at pH 6.8 for rat intestinal maltase using maltose. For rat intestinal maltase, porcine kidney trehalase, and A. niger amyloglucosidase activities, the reaction mixture contained 25 mM maltose and the appropriate amount of enzyme, and the incubations were performed for 10–30 min at 37 °C. The reaction was stopped by heating at 100 °C for 3 min. After centrifugation (600× g; 10 min), the resulting reaction mixture was added to the Glucose CII-test Wako (Wako Pure Chemical Ind., Osaka, Japan). The absorbance at 505 nm was measured to determine the amount of the released D-glucose. Other glycosidase activities were determined using an appropriate para-nitrophenyl glycoside as substrate at the optimum pH of each enzyme. The reaction mixture contained 2 mM of the substrate and the appropriate amount of enzyme. The reaction was stopped by addition of 400 mM Na2CO3. The released para-nitrophenol was measured spectrometrically at 400 nm. All reactions run in methanol.

BE2-C = experiment: MTT cell growth inhibition: BE2-C; format: cell-based; conditions: Homo sapiens, BE(2)-C, read-out: GI50 = Concentration (µM) that inhibits cell growth by 50%; BE2-C neuroblastoma; dose response
MIA-Pa-Ca2 [3] = experiment: MTT cell growth inhibition: MIA-Pa-Ca2; format: cell-based; conditions: Homo sapiens, MIA PaCa-2, read-out: GI50 = Concentration (µM) that inhibits cell growth by 50%; MIA-Pa-Ca2 pancreatic carcinoma; dose response
SJ-G2 = experiment: MTT cell growth inhibition: SJ-G2; format: cell-based; conditions: read-out: GI50 = Concentration (µM) that inhibits cell growth by 50%; SJ-G2 glioblastoma; dose response
HT29 = experiment: MTT cell growth inhibition: HT29; format: cell-based; conditions: Homo sapiens, HT-29, read-out: GI50 = Concentration (µM) that inhibits cell growth by 50%; HT29 colon carcinoma; dose response
Du145 = experiment: MTT cell growth inhibition: Du145; format: cell-based; conditions: Homo sapiens, DU-145, read-out: GI50 = Concentration (µM) that inhibits cell growth by 50%; Du145 prostate carcinoma; dose response
[4] = test system: panel of 10 cancer cell lines and a normal cell line (MCF10A); experiment: Cancer screening: whole cell line panel; format: cell-based; conditions: for GI50: Homo sapiens, read-out: GI50 values across all cancer cell lines and the normal cell line
MCF10A = experiment: MTT cell growth inhibition: MCF10A normal breast; format: cell-based; conditions: Homo sapiens, MCF-10A, read-out: GI50 = Concentration (µM) that inhibits cell growth by 50%

T1 sequence (P53341 whole entry): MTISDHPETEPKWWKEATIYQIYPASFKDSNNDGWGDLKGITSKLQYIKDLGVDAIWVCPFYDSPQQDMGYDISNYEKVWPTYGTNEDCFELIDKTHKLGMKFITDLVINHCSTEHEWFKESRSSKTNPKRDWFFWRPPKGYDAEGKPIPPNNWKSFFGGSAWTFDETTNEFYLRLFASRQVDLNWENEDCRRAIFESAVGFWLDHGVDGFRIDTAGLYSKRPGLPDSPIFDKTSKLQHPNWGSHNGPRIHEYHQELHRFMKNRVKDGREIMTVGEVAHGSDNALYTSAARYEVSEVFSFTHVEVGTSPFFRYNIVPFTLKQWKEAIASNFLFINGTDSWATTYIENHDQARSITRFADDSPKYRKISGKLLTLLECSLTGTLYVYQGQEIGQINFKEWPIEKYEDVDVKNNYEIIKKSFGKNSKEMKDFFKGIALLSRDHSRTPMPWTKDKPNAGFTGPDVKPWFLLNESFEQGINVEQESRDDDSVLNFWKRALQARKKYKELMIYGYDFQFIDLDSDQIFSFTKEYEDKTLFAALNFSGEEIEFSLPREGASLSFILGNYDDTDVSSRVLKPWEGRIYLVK

Row | Compound | inhibition at 400 µM (yeast α-glucosidase) | Appearance of the 1 mg/mL Aqueous Solution Tested [1] | inhibition at 25 µM (MIA-Pa-Ca2 [2]) | % inhibition at ~400 μM (almond β-glucosidase; 400 µM) | inhibition % at 100 μM (snail β-mannosidase) | % inhibition at ~400 μM (yeast α-glucosidase) | Percentage (%) Cell Growth Inhibition in response to 25 µM of Drug (MIA-Pa-Ca2 [2]) | GI50 (BE2-C) | GI50 (MIA-Pa-Ca2 [3]) | % inhibition at ~400 μM (almond β-glucosidase) | GI50 (SJ-G2) | GI50 (HT29) | GI50 (Du145) | inhibition % at 10 μM (snail β-mannosidase) | GI50 [4] | GI50 (MCF10A) | Percent cell growth inhibition across the cell line panel ([4]; 25 μM, range or words over cell lines) | inhibition % at 1000 μM (snail β-mannosidase; 1000 μM)
1 | N[C@@H](Cc1ccc(B(O)O)cc1)C(=O)O [BPA, 4-borono-L-phenylalanine, reference compound] | 2.9% | some in solution with undissolved sediment | 3 ± 3% | 3.9% | ^cNI ^d (2.1%) |  |  |  |  |  |  |  |  |  |  |  |  | 
2 | N[C@@H](Cc1ccc(B(O)O)cc1)C(=O)O [^10B-BPA, reference compound] |  | some in solution with undissolved sediment |  | 3% | ^cNI ^d (0.3%) | 3.4% | 11 ± 3% |  |  |  |  |  |  |  |  |  |  | 
3 | CC1(C)OB(c2cccc(CN3C(=O)c4c(Cl)c(Cl)c(Cl)c(Cl)c4C3=O)c2)OC1(C)C [meta 3, 4,5,6,7-Tetrachloro-2-(3-(4,4,5,5-tetramethyl-1,3,2-dioxaborolan-2-yl)benzyl)isoindoline-1,3-dione] | 32.2% | opaque suspension | 29 ± 2% |  |  |  |  | 29 ± 0.58 µM | 38 ± 2.9 µM | 19.3% | 35 ± 1.7 µM | 26 ± 2.6 µM | 30 ± 0.41 µM | ^cNI ^d (1.1%) | 18 to 38 µM | 18 ± 1 µM |  | 
4 | CC1(C)OB(c2cccc(NC(=O)c3cc(Cl)c(Cl)c(Cl)c3Cl)c2)OC1(C)C [meta 5, 2,3,4,5-tetrachloro-N-(3-(4,4,5,5-tetramethyl-1,3,2-dioxaborolan-2-yl)phenyl)benzamide] | 82.8% | some in solution with undissolved sediment | 8 ± 5% |  | ^aNI ^b (39.1%) |  |  |  |  | 18.7% |  |  |  |  |  |  |  | 
5 | CC1(C)OB(c2ccccc2NC(=O)c2cc(Cl)c(Cl)c(Cl)c2Cl)OC1(C)C [ortho 5, 2,3,4,5-Tetrachloro-N-(2-(4,4,5,5-tetramethyl-1,3,2-dioxaborolan-2-yl)phenyl)benzamide] | 17.3% | some in solution with undissolved sediment | 100 ± 3% |  |  |  |  | 16 ± 0.58 µM | 14 ± 0.25 µM | 21% | 16 ± 0.91 µM | 14 ± 1.7 µM | 16 ± 1.9 µM | ^cNI ^d (0%) | 11 to 27 µM | 27 ± 2.8 µM |  | 
6 | CC1(C)OB(c2ccccc2CNC(=O)c2cc(Cl)c(Cl)c(Cl)c2Cl)OC1(C)C [ortho 8, 2,3,4,5-tetrachloro-N-(2-(4,4,5,5-tetramethyl-1,3,2-dioxaborolan-2-yl)benzyl)benzamide] | 68.9% | some in solution with undissolved sediment | 6 ± 10% |  | ^aNI ^b (39%) |  |  |  |  | 83.4% |  |  |  |  |  |  | almost complete abrogation of cell growth inhibition | 
7 | CC1(C)OB(c2ccc(CN3C(=O)c4c(Cl)c(Cl)c(Cl)c(Cl)c4C3=O)cc2)OC1(C)C [para 3, 4,5,6,7-Tetrachloro-2-(4-(4,4,5,5-tetramethyl-1,3,2-dioxaborolan-2-yl)benzyl)isoindoline-1,3-dione] | 29.3% | some in solution with undissolved sediment | 98 ± 3% |  | ^aNI ^b (0%) |  |  | 8.1 ± 1.7 µM | 9.2 ± 1.9 µM | 15.4% | 6.6 ± 2.4 µM | 5.3 ± 1.3 µM | 5.5 ± 0.23 µM |  | 3 to 18 µM | 12 ± 0.58 µM |  | 
8 | CC1(C)OB(c2ccc(NC(=O)c3cc(Cl)c(Cl)c(Cl)c3Cl)cc2)OC1(C)C [para 5, 2,3,4,5-tetrachloro-N-(4-(4,4,5,5-tetramethyl-1,3,2-dioxaborolan-2-yl)phenyl)benzamide] | 38.4% | some in solution with undissolved sediment | 52 ± 1% |  | ^aNI ^b (30.4%) |  |  |  |  | 11.3% |  |  |  |  |  |  |  | 
9 | Borocaptate sodium [BSH, reference compound] |  | in solution |  |  |  | 59% | 2 ± 6% |  |  | 47.3% |  |  |  |  |  |  |  | ^aNI ^b (19.2%)
